Data taken from patent US10076533B2, “Acyclic nucleoside phosphonate diesters” (The Regents of the University of California, priority 2013, dated 2018).
Read-outs that look alike come from different tables or passages of the source.

Assays:
[1] = Cytotoxicity in HFF cells in parallel to HSV-2 assay; details: human, […]
Hepatitis B virus = assay: HBV replication in 2.2.15 cells, HBV DNA blot hybridization
[2] = Cytotoxicity in HFF cells in parallel to cytomegalovirus assay; details: human, […]
HPV-18 = assay: Antiviral effect in HPV-18 infected primary human keratinocyte rafts, qPCR
[3] = Toxicity in primary human keratinocyte raft cultures by histology
HPV-16 = HPV-16 origin replication in HEK 293 cells, qPCR; format: cell-based
Experimental: (§1) An origin-containing plasmid was co-transfected with HPV-16 E1 and E2 protein expression vectors into HEK 293 cells. At 4 hr post-transfection, cells were treated with compound dilutions and the cells were incubated for 48 hr. Replication of the virus origin was detected with DpnI and exonuclease III to remove unreplicated input bacterial plasmid DNA. Remaining replicated DNA was quantified by qPCR. Toxicity was determined by trypan blue exclusion.

in vitro = details: human
Hela (HPV-18) = assay: Antiproliferative activity, neutral red, Hela cervical cancer cells; details: Homo sapiens, 96 h, read-out: Cytotoxic concentration 50% (CC50) Hela (HPV-18)
[4] = test system: Copenhagen strain of vaccinia virus; assay: microbe, parasite or virus in culture; format: cell-based
[5] = Cytotoxicity in 2.2.15 cells by neutral red uptake; details: human
[6] = test system: AD169 strain of human cytomegalovirus; assay: Antiviral effect in HFF cells infected with human cytomegalovirus (AD169)
HIV-192US727 = assay: Anti-HIV assay in human PBMC, supernatant reverse transcriptase activity
[7] = Cytotoxicity in MT-2 cells, flow cytometry cell counts and viability; format: cell-based, human; details: human; MT-2 cells, 72 hrs
Experimental: MT-2 cells were incubated with drug for 72 hrs and harvested. Flow count beads (Beckman Coulter, Miami, Fla.) were added to the cell suspension followed by propidium iodide staining and analysis using flow cytometer and the 50% cytotoxic concentration (CC50) was calculated from the cell counts and viability.

[8] = test system: BK virus (Gardner strain); assay: Antiviral effect in HFF cells infected with BK virus (Gardner strain), qPCR
[9] = human
[10] = Toxicity in HEK 293 cells by trypan blue exclusion (HPV-11 example); format: cell-based; details: human
Experimental: (§2) An origin-containing plasmid was co-transfected with HPV-11 E1 and E2 protein expression vectors into HEK 293 cells. At 4 hr post-transfection, cells were treated with compound dilutions and the cells were incubated for 48 hr. Replication of the virus origin was detected with DpnI and exonuclease III to remove unreplicated input bacterial plasmid DNA. Remaining replicated DNA was quantified by qPCR. Toxicity was determined by trypan blue exclusion.

MAD-1 strain of JC virus = assay: Antiviral effect in JC virus (MAD-1) infected COS7 cells, qPCR
[11] = African green monkey, uninfected COS7 cells
[12] = Viability of PBMC by XTT reduction; details: human, PHA-stimulated human PBMCs
[13] = Cytotoxicity in HFF cells in parallel to HSV-1 assay; details: human, […]
HPV-11 = HPV-11 origin replication in HEK 293 cells, qPCR; format: cell-based
Experimental: as §2

[14] = Toxicity in HEK 293 cells by trypan blue exclusion (HPV-16 example); format: cell-based; details: human
Experimental: as §1

[15] = Antiproliferative activity, neutral red, normal human fibroblasts; details: normal human fibroblasts (HFF), monolayer culture
Caski (HPV-16) = assay: Antiproliferative activity, neutral red, Caski cervical cancer cells; details: Homo sapiens, Ca-Ski, 96 h, read-out: Cytotoxic concentration 50% (CC50) Caski (HPV-16)
HIV-1LAI = assay: HIV antiviral assay in MT-2 cells, p24 reduction; details: Human immunodeficiency virus 1, MT2, 96 h

CCCCCCCCCCCCCCCCCCOCCOP(=O)(CO[C@H](CO)Cn1cnc2c(N)ncnc21)OCc1ccccc1 (stereo partly drawn) [Compound 218, benzyl octadecyloxyethyl 9-(S)-[3-hydroxy-2-(phosphonomethoxy)propyl] adenine]
CC50 at 3 days [1]: 6910 nM | EC50 (Hepatitis B virus; Hepatitis B virus, 168 h): 760 nM | Selectivity Index (Hepatitis B virus; hepatitis B virus, 2.2.15 cells): >132 | CC50 at 14 days [2]: 7490 nM | Selectivity Index (HPV-18; HPV-18 keratinocyte rafts): >39 | EC50 (HPV-18; Homo sapiens, Keratinocyte): 250 nM | CC50 [3]: > 10000 nM | EC50 (HPV-16; HEK293, HPV-16 origin replication in HEK 293 cells, 48 hr, qPCR, read-out: EC50): 240 nM | Selectivity Index (HPV-16; HPV-16, HEK 293 cells): >41.7 | CC50 (in vitro): > 100000 nM | CC50 (Hela (HPV-18)): 29 nM | EC50 ([4]; Orthopoxvirus vaccinia, HFF, 168 h): < 30 nM | Selectivity Index ([4]; vaccinia virus (Copenhagen), HFF cells): >3330 | CC50 at 7 days [5]: > 100000 nM | EC50 ([6]; Human betaherpesvirus 5, AD169, HFF, 336 h): < 30 nM | Selectivity Index ([6]; human cytomegalovirus (AD169), HFF cells): >250 | Selectivity Index (HIV-192US727; HIV-192US727, human PBMC): >23.0 | EC50 (HIV-192US727; Human immunodeficiency virus 1, PBMC, 168 h): < 10 nM | CC50 at 72 h [7]: 2300 ± 1600 nM | Selectivity Index ([8]; BK virus (Gardner strain), HFF cells): >93 | EC50 ([8]; Betapolyomavirus hominis, HFF, 336 h): < 30 nM | CC50 at 14 days [9]: 2800 nM | CC50 at 48 h [10]: > 100000 nM | EC50 (MAD-1 strain of JC virus; JC polyomavirus, COS-7, 168 h): > 4000 nM | Selectivity Index (MAD-1 strain of JC virus; JC virus (MAD-1), COS7 cells): <2.6 | CC50 at 7 days [11]: 10200 nM | CC50 at 7 days [12]: 230 nM | CC50 at 3 days [13]: 14500 nM | EC50 (HPV-11; HEK293, HPV-11 origin replication in HEK 293 cells, 48 hr, qPCR): 770 nM | Selectivity Index (HPV-11; HPV-11, HEK 293 cells): >370 | CC50 at 48 h [14]: > 10000 nM | CC50 at 4 days [15]: 5200 nM | CC50 (Caski (HPV-16)): 55 nM | EC50 (HIV-1LAI): 130 ± 140 nM
